In publication PMC9241669, “Allantodapsone is a Pan-Inhibitor of Staphylococcus aureus Adhesion to Fibrinogen, Loricrin, and Cytokeratin 10” (Microbiology Spectrum, 2022):
≈ marks a conversion by molar mass, not a printed value. Where “and” joins values, the source holds several entries; their conditions need not be identical. Equal values may be shown once. Entries after “also recorded” stand apart in the source; their conditions may differ.

Legend:
S. aureus Newman [1] = experiment: Adhesion of S. aureus Newman to GST-L2v loricrin; type: cell-based, Staphylococcus aureus; settings: for activity in adhesion of S. aureus Newman to L2v loricrin: screened at 80 μM (Fig. 4D)
Procedure: FIG 4 Allantodapsone inhibits S. aureus adhesion to loricrin and cytokeratin 10. Dose-response curve for adhesion of S. aureus Newman to GST-L2v loricrin (A) and CK10 (C). (B) Inhibition of recombinant ClfB N2N3 binding to immobilized GST-L2v loricrin by allantodapsone. (D) Inhibition of S. aureus Newman adhesion to GST-L2v loricrin by allantodapsone derivatives. Purified GST-L2v or CK10 were used to coat plates at 4°C overnight. Wells were washed with PBS and blocked with 1% BSA. Washed bacteria (OD600 of 1) were mixed with allantodapsone or vehicle control before being added to the wells and incubated for 2 h at 37°C. Adherent cells were washed, fixed, and stained with crystal violet, and wells further washed. The dye was dissolved in acetic acid, and the absorbance measured at 570 nm. GST-L2v was used at 20 μM in A and D. CK10 was used at 10 nM. Test compounds were incubated with bacteria at 80 μM and normalized to the DMSO vehicle control in D. For data presented in B, recombinant ClfB was incubated with allantodapsone (100 μM) or DMSO (1%) for 30 min prior to being added to wells coated with recombinant GST-L2v loricrin. Bound ClfB was detected using peroxidase-conjugated anti-His monoclonal antibody in an ELISA. The graphs shown are representative of three independent experiments. Statistics were carried out using one-way ANOVA followed by the Dunnett’s posttest using GraphPad Prism version 9.0.
(§1) Adhesion assays were carried out according to Hartford et al. ([37]). Briefly, plates were coated with 10 μg/mL fibrinogen (Calbiochem, Darmstadt, Germany) or 20 μg/mL fibronectin (Sigma-Aldrich, Ireland) for 2 h at 37°C or for 16 h at 4°C. Plates were blocked with 1% BSA at 37°C for 1 h and washed 3 times in PBS. Washed bacteria were incubated at 37°C for 2 h. Adherent bacteria were washed three times in PBS and fixed in 5–9% formaldehyde at room temperature for 30 min. Wells were washed three times in PBS and stained using 5% crystal violet for 20 min. Wells were washed three times in PBS, and the crystal violet solubilized using 5% acetic acid. Plates were read at 570 nm on a Wallac Victor2, (Shelton, CT, USA). The minimum adhesion inhibitory concentration (MAIC) was determined as the concentration inhibiting greater than 90% bacterial adhesion.

S. aureus SH1000 = experiment: Adhesion of S. aureus SH1000 to immobilized fibrinogen (crystal violet); type: cell-based, Staphylococcus aureus; settings: S. aureus SH1000, stationary and exponential phase; compounds screened at 70 μM (Fig. 2)
Procedure: (§2) FIG 2 Allantodapsone inhibits S. aureus adhesion to fibrinogen. (A) S. aureus Newman stationary phase and (B) exponential phase. (C) S. aureus SH1000 stationary phase and (D) exponential phase bacteria. Fibrinogen was used to coat plates at 4°C overnight at 10 μg/mL. Wells were washed with PBS and blocked with 1% BSA. Washed bacteria (OD600 of 1) were mixed with the relevant concentration of allantodapsone or vehicle control for 5 min, and added to the wells, incubating for 2 h at 37°C. Adherent cells were washed, fixed, and stained with crystal violet, and wells further washed. The dye was dissolved in acetic acid and the absorbance measured at 570 nm. Compounds were screened at a concentration of 70 μM and compared to their vehicle control. Statistical analysis was carried out using repeated measures ANOVA followed by multiple comparisons Dunnett’s tests using GraphPad PRISM. **, P ≤ 0.01; ***, P ≤ 0.001; ****, P ≤ 0.0001 (n = 3).
as §1
(§3) Compounds were added to the bacterial suspension prior to addition to the wells. In each experiment, vehicle controls were prepared using the same volume of vehicle for the matching test compound.

S. aureus Newman [2] = experiment: Adhesion of S. aureus Newman to immobilized fibrinogen (crystal violet); type: cell-based, Staphylococcus aureus; settings: for inhibition of adhesion to fibrinogen: S. aureus Newman, stationary and exponential phase, compounds screened at 70 μM (Fig. 2); for activity of individual fragments of allantodapsone: assay not specified
Procedure: FIG 1 Allantodapsone inhibits S. aureus Newman adhesion to fibrinogen. Dose response curves for S. aureus Newman (A), L. lactis ClfA (B), and L. lactis ClfB (C) adhesion to fibrinogen. Fibrinogen was used to coat plates at 4°C overnight at 10 μg/mL. Wells were washed with PBS and blocked with 1% BSA. Washed bacteria (OD600 of 1) were mixed with the relevant concentration of allantodapsone or vehicle control (DMSO) for 5 min, and added to the wells, incubating for 2 h at 37°C. Adherent cells were washed, fixed, and stained with crystal violet, and wells further washed. The dye was dissolved in acetic acid and the absorbance measured at 570 nm. IC50 values were generated using GraphPad Prism 9.0 GraphPad software, San Diego, CA. Data are representative of three experiments with error presented as SEM.
as §2, §1, §3

S. aureus Newman [3] = experiment: Antimicrobial assay (bacterial growth in BHI broth); type: cell-based, Staphylococcus aureus; settings: for MIC90: Staphylococcus aureus, S. aureus Newman, overnight growth in BHI broth; for inhibition of bacterial growth (words): overnight in BHI broth, allantodapsone up to 100 μM, versus vehicle control
Procedure: S. aureus was grown in BHI broth shaking overnight at 37°C in the presence of a range of concentrations of allantodapsone, dapsone, or ampicillin as control. Absorbance was measured the following day at 570 nm. Data have been normalized to the relevant vehicle control (1% DMSO for allantodapsone and dapsone and water for ampicillin). […] Error bars represent SEM.
S. aureus was grown overnight in BHI broth at 37°C in shaking incubator. Wells were inoculated with 10 μL of overnight culture into 90 μL of broth containing the test compounds or controls. A growth control containing no agents was used (positive control), a sterility control of broth alone was included, and vehicle controls were included for each test compound. Plates were incubated overnight at 37°C and absorbance measured at 570 nm the following day using a Wallac Victor2, (Shelton, CT, USA).

MSSA isolates = settings: cited from earlier work

Row | Compound | activity in adhesion of S. aureus Newman to L2v loricrin (S. aureus Newman [1]) | inhibition of adhesion to fibrinogen (S. aureus SH1000) | inhibition of adhesion to fibrinogen (S. aureus Newman [2]) | activity of individual fragments of allantodapsone (S. aureus Newman [2]) | MIC90 (S. aureus Newman [3]) | inhibition of bacterial growth (words) (S. aureus Newman [3]) | other results
1 | N=C(N)Nc1ccc(Oc2cccc(NC(=N)N)c2)cc1 [Compound 10] | loss of activity | – | – | – | – | – | –
2 | N=C(N)Nc1ccc(Oc2cccc(NC(=O)c3ccc(Cl)c(C(F)(F)F)c3)c2)cc1 [Compound 11] | demonstrated activity; also recorded: maintained some activity | – | – | – | – | – | adhesion to L2v loricrin, normalized to DMSO vehicle control (S. aureus Newman [1]; test compound at 80 μM, S. aureus Newman): 61.3% ± 7
3 | O=C1NC(=O)C(=O)C(=O)N1 [alloxan] | – | Neither dapsone nor alloxan had any inhibitory activity | Neither dapsone nor alloxan had any inhibitory activity; also recorded: did not have any inhibitory effect | did not show any activity | – | – | –
4 | CC1(C)S[C@@H]2[C@H](NC(=O)[C@H](N)c3ccccc3)C(=O)N2[C@H]1C(=O)O [ampicillin] | – | – | – | – | 0.03 µM and 0.01 µg/mL | pronounced inhibitory effect on growth | MIC90 reported for S. aureus isolates (MSSA isolates; microdilution method in MSSA isolates): 0.015 to 4 µg/mL
5 | Nc1ccc(S(=O)(=O)c2ccc(N)cc2)cc1 [dapsone] | – | Neither dapsone nor alloxan had any inhibitory activity | Neither dapsone nor alloxan had any inhibitory activity; also recorded: did not have any inhibitory effect | did not show any activity | 0.3 µM and 0.1 µg/mL | inhibited growth | MIC90 previously determined in MSSA strains (MSSA isolates; MSSA strains): 128 µg/mL (≈ 515 µM); range printed in parentheses after MIC90 in MSSA strains (MSSA isolates; MSSA strains): 32 to 256 µg/mL
6 | O=C1NC(=O)C(=NO)C(=O)N1 [violuric acid] | – | – | – | did not show any activity | – | – | –
